Read-outs that look alike come from different tables or passages of the source.
What was measured:
[1] = molecular target: T1, purified catalytic domain of recombinant human TACE (rhTACEc) (Homo sapiens, UniProt P78536, N452Q/S266A); assay: TACE kinetic assay: cleavage of internally quenched peptide substrate TNF-FRET 2 (Ki); format: biochemical; details: TNF-FRET 2 substrate
T1 construct: 6xHis (C); made in house; host or cells: baculovirus/Hi5 insect cells

[2] = system: TNF-α production from human whole blood; assay: Inhibition of TNF-α production from human whole blood (hWBA), LPS stimulated, ELISA; format: cell-based; details: human whole blood diluted 1:1, LPS stimulated, TNF-α by ELISA, read-out: hWBA (IC50)
[3] = Area under the curve determinations of plasma levels in rats (rrAUC), oral 10 mg/kg; format: in vivo; details: for AUC: rat, read-out: RR AUC (rapid rat AUC, rrAUC)
[4] = plasma, blood collected 0.5-6 h post-dosing
[5] = blood collected 0.5-6 h post-dosing

T1 sequence (P78536 215-477 S266A/N452Q): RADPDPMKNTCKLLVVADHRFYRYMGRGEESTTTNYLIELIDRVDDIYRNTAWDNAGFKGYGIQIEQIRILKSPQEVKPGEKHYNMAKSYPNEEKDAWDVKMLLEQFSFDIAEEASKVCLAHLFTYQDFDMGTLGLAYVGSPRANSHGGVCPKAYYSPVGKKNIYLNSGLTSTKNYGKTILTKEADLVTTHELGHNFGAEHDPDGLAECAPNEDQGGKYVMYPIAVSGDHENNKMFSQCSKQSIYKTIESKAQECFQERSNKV

SMILES | Ki ([1]; read-out: Ki) | IC50 ([2]; Homo sapiens, 3.5 h, 3.5 h) | AUC ([3]; plasma 0.5-6 h post-dosing) | IC50 ([2]; Homo sapiens) | AUC [3, 4] | RR AUC (rapid rat AUC, rrAUC) [3, 5] | IC50 [2] | Ki ([1]; Ki)
COc1ccc2c(c1F)C(=O)N(C[C@@]1(c3cc4cccnc4o3)NC(=O)NC1=O)C2 [Compound 2271] | 0.36 nM | 218 nM | 10.6 µM·h |  |  |  |  | 
COc1ccc2c(c1F)C(=O)N(C[C@@]1(c3cc4ccncc4o3)NC(=O)NC1=O)C2 [Compound 2272] | 0.3 nM | 167 nM | 2.79 µM·h |  |  |  |  | 
COc1ccc2c(c1)C(=O)N(C[C@@]1(c3cc4c(C5=NCCN5)nccc4o3)NC(=O)NC1=O)C2 [Compound 2274] | 2 nM | 2240 nM | 0.033 µM·h |  |  |  |  | 
COc1ccc2c(c1F)C(=O)N(C[C@@]1(c3cc4cc(F)cnc4o3)NC(=O)NC1=O)C2 [Compound 2277] |  | 499 nM | 26.2 µM·h |  |  |  |  | 0.505 nM
COc1ccc2c(c1)C(=O)N(C[C@@]1(c3cc4c(N5CCOCC5)nccc4o3)NC(=O)NC1=O)C2 [Compound 2281] | 0.458 nM |  |  | 510 nM | 0.749 µM·h |  |  | 
CCc1nccc2oc([C@]3(CN4Cc5ccc(OC)cc5C4=O)NC(=O)NC3=O)cc12 [Compound 2289] | 0.25 nM |  |  | 358 nM | 3.56 µM·h |  |  | 
COc1ccc2c(c1)C(=O)N(C[C@@]1(c3cc4c(N5CCCC5=O)nccc4o3)NC(=O)NC1=O)C2 [Compound 2293] | 1.26 nM |  |  | 531 nM | 0.219 µM·h |  |  | 
COc1ccc2c(c1)C(=O)N(C[C@@]1(c3cc4c(C(C)O)nccc4o3)NC(=O)NC1=O)C2 (stereo partly drawn) [Compound 2294] | 0.553 nM |  |  | 323 nM | 0.154 µM·h |  |  | 
COc1ccc2c(c1)C(=O)N(C[C@@]1(c3cc4cc(NC(C)=O)cnc4o3)NC(=O)NC1=O)C2 [Compound 2295] | 1.31 nM |  |  | 222 nM | 0.044 µM·h |  |  | 
COc1ccc2c(c1)C(=O)N(C[C@@]1(c3cc4c(OC)nccc4o3)NC(=O)NC1=O)C2 [Compound 2307] | 0.437 nM |  |  | 604 nM | 41.4 µM·h |  |  | 
COc1ccc2c(c1F)C(=O)N(C[C@@]1(c3cc4cnccc4o3)NC(=O)NC1=O)C2 [Compound 2310] | 0.37 nM |  |  | 197 nM | 2.31 µM·h |  |  | 
COc1ccc2c(c1)C(=O)N(C[C@@]1(c3cc4nc(N)ccc4o3)NC(=O)NC1=O)C2 [Compound 2314] |  |  |  | 187 nM |  | 0.424 µM·h |  | 0.511 nM
COc1ccc2c(c1)C(=O)N(C[C@@]1(c3cc4nc(N5CCN(C(C)=O)CC5)ccc4o3)NC(=O)NC1=O)C2 [Compound 2400] | 0.585 nM |  |  | 280 nM | 0.439 µM·h |  |  | 
COc1ccc2c(c1)C(=O)N(C[C@@]1(c3cc4c(C(N)=O)nccc4o3)NC(=O)NC1=O)C2 [Compound 2401] | 0.58 nM |  |  | 270 nM | 1.43 µM·h |  |  | 
COc1ccc2c(c1)C(=O)N(C[C@@]1(c3cc4ccc(C(=O)NCCN(C)C)cc4o3)NC(=O)NC1=O)C2 [Compound 2412] | 0.32 nM |  |  | 115 nM | 0.104 µM·h |  |  | 
COc1ccc2c(c1)C(=O)N(C[C@@]1(c3cc4cc(C5(C(N)=O)CC5)ccc4o3)NC(=O)NC1=O)C2 [Compound 2421] | 0.38 nM |  |  | 886 nM | 0.037 µM·h |  |  | 
COc1ccc2c(c1)C(=O)N(C[C@@]1(c3cc4ccc(C(=O)N5CCNCC5)cc4o3)NC(=O)NC1=O)C2 [Compound 2424] | 0.98 nM |  |  | 702 nM | 0.013 µM·h |  |  | 
COc1ccc2c(c1)C(=O)N(C[C@@]1(c3cc4cc(C(=O)N5CCN(C)CC5)ccc4o3)NC(=O)NC1=O)C2 [Compound 2426] |  |  |  | 850 nM | 0.057 µM·h |  |  | 1.26 nM
COc1ccc2c(c1)C(=O)N(C[C@@]1(c3cc4cc(C(=NO)N5CCN(C6CC6)CC5)ccc4o3)NC(=O)NC1=O)C2 [Compound 2455] | 0.58 nM |  |  | 885 nM | 0.013 µM·h |  |  | 
CNS(=O)(=O)c1cc2oc([C@]3(CN4Cc5ccc(OC)cc5C4=O)NC(=O)NC3=O)cc2cc1C [Compound 2480] |  |  |  | 1390 nM | 0.212 µM·h |  |  | 0.43 nM
COc1ccc2c(c1F)C(=O)N(C[C@@]1(c3cc4cc5c(cc4o3)C(=O)NCC5)NC(=O)NC1=O)C2 [Compound 2491] | 0.195 nM |  |  | 109 nM | 0.972 µM·h |  |  | 
COc1ccc2c(c1F)C(=O)N(C[C@@]1(c3cc4cc5c(c(C)c4o3)C(=O)NC5)NC(=O)NC1=O)C2 [Compound 2497] | 0.29 nM |  |  | 673 nM | 1.05 µM·h |  |  | 
COc1ccc2c(c1F)C(=O)N(C[C@@]1(c3cc4cc5c(c(F)c4o3)C(=O)NC5)NC(=O)NC1=O)C2 [Compound 2499] | 0.33 nM |  |  | 72 nM | 1.08 µM·h |  |  | 
COc1ccc2c(c1F)C(=O)N(C[C@@]1(c3cc4cc(F)c5c(c4o3)CNC5=O)NC(=O)NC1=O)C2 [Compound 2501] | 0.86 nM |  |  | 148 nM | 0.448 µM·h |  |  | 
COc1ccc2c(c1F)C(=O)N(C[C@@]1(c3cc4cc5c(c(F)c4o3)C(=O)N(C)C5)NC(=O)NC1=O)C2 [Compound 2502] | 0.69 nM |  |  | 381 nM | 3.12 µM·h |  |  | 
COc1ccc2c(c1)C(=O)N(C[C@@]1(c3cc4c5c(ccc4o3)CNC5=O)NC(=O)NC1=O)C2 [Compound 2503] | 0.36 nM |  |  | 170 nM | 0.304 µM·h |  |  | 
COc1ccc2c(c1)C(=O)N(C[C@@]1(c3cc4c5c(ccc4o3)C(=O)NC5)NC(=O)NC1=O)C2 [Compound 2504] | 0.45 nM |  |  | 189 nM | 0.181 µM·h |  |  | 
COc1ccc2c(c1F)C(=O)N(C[C@@]1(c3cc4c5c(ccc4o3)CNC5=O)NC(=O)NC1=O)C2 [Compound 2505] | 0.6 nM |  |  | 151 nM | 1.12 µM·h |  |  | 
COc1ccc2c(c1F)C(=O)N(C[C@@]1(c3cc4c5c(ccc4o3)C(=O)NC5)NC(=O)NC1=O)C2 [Compound 2506] | 0.323 nM |  |  | 156 nM | 0.437 µM·h |  |  | 

The next lines start with results.

Ki ([1]; read-out: Ki) | IC50 ([2]; Homo sapiens, 3.5 h, 3.5 h) | AUC ([3]; plasma 0.5-6 h post-dosing) | IC50 ([2]; Homo sapiens) | AUC [3, 4] | RR AUC (rapid rat AUC, rrAUC) [3, 5] | IC50 [2] | SMILES | Ki ([1]; Ki)
0.637 nM | 260 nM | 12.1 µM·h |  |  |  |  | COc1ccc2c(c1)C(=O)N(C[C@@]1(c3cc4c(Cl)nccc4o3)NC(=O)NC1=O)C2 [Compound 2278] | 
0.5 nM |  |  | 198 nM | 2.8 µM·h |  |  | COc1ccc2c(c1)C(=O)N(C[C@@]1(c3cc4c(C)nccc4o3)NC(=O)NC1=O)C2 [Compound 2284] | 
0.44 nM |  |  | 368 nM | 22.2 µM·h |  |  | COc1ccc2c(c1)C(=O)N(C[C@@]1(c3cc4cnc(Cl)cc4o3)NC(=O)NC1=O)C2 [Compound 2285] | 
0.566 nM |  |  | 184 nM | 0.046 µM·h |  |  | COc1ccc2c(c1)C(=O)N(C[C@@]1(c3cc4cnc(-c5cn[nH]c5)cc4o3)NC(=O)NC1=O)C2 [Compound 2286] | 
0.264 nM |  |  | 643 nM | 20.3 µM·h |  |  | CCc1cc2oc([C@]3(CN4Cc5ccc(OC)cc5C4=O)NC(=O)NC3=O)cc2cn1 [Compound 2290] | 
0.49 nM |  |  | 902 nM | 22.7 µM·h |  |  | COc1ccc2c(c1)C(=O)N(C[C@@]1(c3cc4cc(Cl)ncc4o3)NC(=O)NC1=O)C2 [Compound 2300] | 
0.276 nM |  |  | 419 nM | 9.31 µM·h |  |  | COc1ccc2c(c1)C(=O)N(C[C@@]1(c3cc4cc(F)ncc4o3)NC(=O)NC1=O)C2 [Compound 2304] | 
0.594 nM |  |  | 624 nM | 18 µM·h |  |  | COc1ccc2c(c1)C(=O)N(C[C@@]1(c3cc4cnc(C)nc4o3)NC(=O)NC1=O)C2 [Compound 2309] | 
0.579 nM |  |  | 518 nM |  | 0.015 µM·h |  | COc1ccc2c(c1)C(=O)N(C[C@@]1(c3cc4nc(NS(=O)(=O)C5CC5)ccc4o3)NC(=O)NC1=O)C2 [Compound 2318] | 
0.8 nM |  |  |  |  | 10.648 µM·h | 8420 nM | COc1ccc2c(c1)C(=O)N(C[C@@]1(c3cc4cnc(-c5cccc(C#N)c5)cc4o3)NC(=O)NC1=O)C2 [Compound 2431] | 
0.859 nM |  |  | 280 nM | 1.07 µM·h |  |  | CNC(=O)c1ccc2oc([C@]3(CN4Cc5ccc(OC)cc5C4=O)NC(=O)NC3=O)cc2n1 [Compound 2462] | 
0.578 nM |  |  | 803 nM | 22.1 µM·h |  |  | COc1ccc2c(c1)C(=O)N(C[C@@]1(c3cc4nc(-c5cccc(C#N)c5)ccc4o3)NC(=O)NC1=O)C2 [Compound 2470] | 
0.745 nM |  |  | 1610 nM | 0.536 µM·h |  |  | COc1ccc2c(c1)C(=O)N(C[C@@]1(c3cc4nc(-c5ccc(C#N)nc5)ccc4o3)NC(=O)NC1=O)C2 [Compound 2472] | 
0.32 nM |  |  | 564 nM | 5.69 µM·h |  |  | COc1ccc2c(c1)C(=O)N(C[C@@]1(c3cc4nc(C#N)ccc4o3)NC(=O)NC1=O)C2 [Compound 2473] | 
0.52 nM |  |  | 549 nM | 15.5 µM·h |  |  | COC(=O)Nc1ccc2oc([C@]3(CN4Cc5ccc(OC)cc5C4=O)NC(=O)NC3=O)cc2n1 [Compound 2474] | 
0.16 nM |  |  | 310 nM | 0.89 µM·h |  |  | CNS(=O)(=O)c1ccc2oc([C@]3(CN4Cc5ccc(OC)cc5C4=O)NC(=O)NC3=O)cc2c1 [Compound 2481] | 
0.799 nM |  |  | 8420 nM | 10.6 µM·h |  |  | COc1ccc2c(c1)C(=O)N(C[C@@]1(c3cc4cnc(-c5cccc(C#N)c5)cc4o3)NC(=O)NC1=O)C2 [Compound 2489] | 
